# Measurements reported in US20250145606A1 (Arcus Biosciences, Inc., priority 2023, published 2025).
# Read-outs that look alike come from different tables or passages of the source.
# Legend:
# [1] = biological target: c-Kit (Homo sapiens (Human), UniProt P10721); assay: Inhibition of c-Kit kinase activity (HTRF KinEASE-TK); format: biochemical; conditions: biochemical, HTRF KinEASE-TK
# Method in brief: (§1)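 Recombinant kinases (2 nM CSF1R and c-Kit, 10 nM PDGFRα/β, 2× working) preincubated 1 h with compound in 50 mM HEPES pH 7.4, 5 mM MgCl2 (c-Kit) or 10 mM (others), 2 mM MnCl2; 2× ATP: c-Kit 16 μM, PDGFRα 1 μM, PDGFRβ 40 μM, CSF1R 20 μM. 120 min reaction at rt; TR-FRET 665/620 nm; IC50 by 4-parameter fit.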
# [2] = biological target: CSF1R (Homo sapiens (Human), UniProt P07333); assay: Inhibition of CSF1R kinase activity (HTRF KinEASE-TK); conditions: biochemical, HTRF KinEASE-TK
# Method in brief: as §1
# [3] = biological target: PDGFRα (Homo sapiens (Human), UniProt P16234); assay: Inhibition of PDGFRα kinase activity (HTRF KinEASE-TK); conditions: biochemical, HTRF KinEASE-TK
# Method in brief: as §1
# [4] = biological target: FLT3 (Homo sapiens (Human), UniProt P36888); assay: Inhibition of FLT3 kinase activity (HTRF KinEASE-TK); format: biochemical; conditions: biochemical, HTRF KinEASE-TK
# Method in brief: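 FLT3 tyrosine kinase activity was measured with the HTRF KinEASE-TK kit by following phosphorylation of a biotinylated TK peptide. After the 45 min reaction, 10 μL of detection mix was added: 0.2 μM (2×) Streptavidin-XL665 and 2 μM (2×) TK-Antibody-Cryptate in detection buffer. After 60 min, TR-FRET was read on an Envision as the 665 nm/620 nm emission ratio with 320 nm excitation.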
# [5] = biological target: PDGFRβ (Homo sapiens (Human), UniProt P09619); assay: Inhibition of PDGFRβ kinase activity (HTRF KinEASE-TK); conditions: biochemical, HTRF KinEASE-TK
# Method in brief: as §1
# [6] = test system: Phospho-KIT (Y703) in M07e cells; assay: Phospho-KIT (Y703) cellular assay in M07e cells; format: cell-based
# Method in brief: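 Serum-starved M07e cells preincubated 50 min at 37° C with 11-point half-log compound titration, then stimulated 10 min with SCF at 90.9 ng/mL final. Fixed, permeabilized cells stained for phospho-KIT Y703 and read by flow cytometry (live-gated geometric mean); IC50 by 4-parameter fit normalized to DMSO and positive control.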
# [7] = test system: Sprague Dawley rat hepatocytes; assay: Bioactivation assessment in rat hepatocytes; format: in vitro ADME; conditions: 5 μM, 4 hours
# Method: (§2) Bioactivation Assessment Procedure
# (§3) Pooled male Sprague Dawley rat (BioIVT), male beagle dog (BioIVT), male cynomolgus monkey (BioIVT), and a 50-donor pool of cryopreserved human hepatocytes (BioIVT) was thawed in pre-warmed 37° C. InVitroGro™ HT media (BioIVT), centrifuged, and resuspended in the InVitroGro™ HI media (BioIVT). The number of viable cells was determined by the Trypan blue exclusion method. The cells were diluted to a concentration of two million viable cells per milliliter (viability >80%) and seeded into round-bottom 96-well plates. The test articles were dissolved in DMSO and further diluted in 50% CH3CN and InVitroGro™ HI media with final concentrations of 0.05% DMSO and 0.5% CH3CN in the incubation mixture. Incubation was performed at a final concentration of one million cells per milliliter and 5 μM test compounds with continuous shaking at 1100 rpm in a 37° C., 5/95% CO2/air incubator with 100% relative humidity. After 4 hours, the samples were quenched by addition of 3 volumes of CH3CN, vortexed for 15 minutes, and centrifuged at 4200 rpm for 15 minutes at 10° C. (Sorvall Legend XTR centrifuge, Thermo Scientific, Langenselbold, Germany). 80 μL of the resulting supernatant was transferred into a new plate and mixed with 160 μL water followed by liquid chromatography-high resolution mass spectrometry (LC-HRMS) analysis.
# (§4) Structural assignments of metabolites were determined through mass spectral analysis. The level of bioactivation was estimated based on the relative peak area of bioactivation products to all identified metabolites. The following equation was used: […]
# (§5) Bioactivation products included glutathione conjugates, imine methides, quinones, diols, and other relevant metabolites.
# [8] = test system: human hepatocytes; assay: Bioactivation assessment in human hepatocytes; format: in vitro ADME; conditions: 5 μM, 4 hours
# Method: as §2, §3, §4, §5
# [9] = test system: beagle dog hepatocytes; assay: Bioactivation assessment in dog hepatocytes; format: in vitro ADME; conditions: 5 μM, 4 hours
# Method: as §2, §3, §4, §5
# [10] = M-07e, Phospho-KIT (Y703), M07e cells, read-out: M07e Cell IC50
# [11] = M-07e, M07e cells, read-out: Phospho-KIT (Y703) cellular IC50
# Chain of PDGFRβ (P09619 33-1106): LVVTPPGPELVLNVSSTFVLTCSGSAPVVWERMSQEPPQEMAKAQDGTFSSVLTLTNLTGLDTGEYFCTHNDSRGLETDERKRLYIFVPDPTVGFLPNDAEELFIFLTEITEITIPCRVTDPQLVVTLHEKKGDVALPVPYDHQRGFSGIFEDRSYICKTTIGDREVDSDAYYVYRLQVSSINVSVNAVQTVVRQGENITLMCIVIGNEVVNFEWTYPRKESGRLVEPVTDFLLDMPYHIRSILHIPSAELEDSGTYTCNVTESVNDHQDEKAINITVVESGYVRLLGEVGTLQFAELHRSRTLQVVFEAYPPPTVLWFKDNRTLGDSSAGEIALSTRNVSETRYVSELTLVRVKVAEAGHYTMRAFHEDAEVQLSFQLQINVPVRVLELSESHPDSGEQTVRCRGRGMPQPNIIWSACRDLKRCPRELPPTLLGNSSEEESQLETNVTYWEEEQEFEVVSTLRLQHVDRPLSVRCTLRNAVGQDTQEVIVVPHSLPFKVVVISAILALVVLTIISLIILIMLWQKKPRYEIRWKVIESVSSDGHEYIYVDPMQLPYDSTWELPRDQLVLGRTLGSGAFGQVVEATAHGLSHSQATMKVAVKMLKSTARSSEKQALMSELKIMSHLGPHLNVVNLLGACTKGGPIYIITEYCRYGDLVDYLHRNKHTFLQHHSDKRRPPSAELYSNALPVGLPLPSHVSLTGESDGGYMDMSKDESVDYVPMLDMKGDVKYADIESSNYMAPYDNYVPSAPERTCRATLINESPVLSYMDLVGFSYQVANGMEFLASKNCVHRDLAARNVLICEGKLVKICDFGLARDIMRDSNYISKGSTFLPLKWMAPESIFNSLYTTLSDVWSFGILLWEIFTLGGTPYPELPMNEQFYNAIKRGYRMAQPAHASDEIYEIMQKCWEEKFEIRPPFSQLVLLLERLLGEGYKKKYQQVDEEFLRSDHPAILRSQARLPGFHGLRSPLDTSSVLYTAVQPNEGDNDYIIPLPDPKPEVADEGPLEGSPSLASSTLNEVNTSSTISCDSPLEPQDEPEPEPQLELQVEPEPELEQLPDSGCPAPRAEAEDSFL
# Chain of FLT3 (P36888 27-993): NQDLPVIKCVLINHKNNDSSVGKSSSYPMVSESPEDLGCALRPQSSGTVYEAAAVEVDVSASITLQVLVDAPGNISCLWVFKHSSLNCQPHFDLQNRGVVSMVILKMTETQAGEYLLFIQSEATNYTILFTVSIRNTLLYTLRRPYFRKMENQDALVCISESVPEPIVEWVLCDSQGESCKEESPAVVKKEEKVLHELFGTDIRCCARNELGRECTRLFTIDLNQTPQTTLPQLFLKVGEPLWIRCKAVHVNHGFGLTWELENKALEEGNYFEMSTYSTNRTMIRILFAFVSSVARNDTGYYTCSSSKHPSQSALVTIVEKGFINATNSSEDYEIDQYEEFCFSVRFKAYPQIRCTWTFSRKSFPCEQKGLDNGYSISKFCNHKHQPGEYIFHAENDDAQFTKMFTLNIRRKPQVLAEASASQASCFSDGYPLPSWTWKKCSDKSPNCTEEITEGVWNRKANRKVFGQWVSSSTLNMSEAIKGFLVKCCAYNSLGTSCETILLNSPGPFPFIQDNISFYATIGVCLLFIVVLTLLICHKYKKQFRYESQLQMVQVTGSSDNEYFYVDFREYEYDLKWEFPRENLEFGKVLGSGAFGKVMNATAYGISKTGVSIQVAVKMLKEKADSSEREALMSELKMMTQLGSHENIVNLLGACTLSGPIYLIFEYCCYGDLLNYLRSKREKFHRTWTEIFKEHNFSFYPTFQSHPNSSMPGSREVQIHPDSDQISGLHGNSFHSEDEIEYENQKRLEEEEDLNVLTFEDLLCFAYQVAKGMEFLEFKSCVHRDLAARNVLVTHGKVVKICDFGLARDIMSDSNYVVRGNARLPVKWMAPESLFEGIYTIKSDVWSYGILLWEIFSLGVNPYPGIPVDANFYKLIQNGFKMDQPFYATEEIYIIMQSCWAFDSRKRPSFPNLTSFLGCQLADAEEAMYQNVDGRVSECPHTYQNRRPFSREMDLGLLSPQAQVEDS
# Chain of c-Kit (P10721 26-976): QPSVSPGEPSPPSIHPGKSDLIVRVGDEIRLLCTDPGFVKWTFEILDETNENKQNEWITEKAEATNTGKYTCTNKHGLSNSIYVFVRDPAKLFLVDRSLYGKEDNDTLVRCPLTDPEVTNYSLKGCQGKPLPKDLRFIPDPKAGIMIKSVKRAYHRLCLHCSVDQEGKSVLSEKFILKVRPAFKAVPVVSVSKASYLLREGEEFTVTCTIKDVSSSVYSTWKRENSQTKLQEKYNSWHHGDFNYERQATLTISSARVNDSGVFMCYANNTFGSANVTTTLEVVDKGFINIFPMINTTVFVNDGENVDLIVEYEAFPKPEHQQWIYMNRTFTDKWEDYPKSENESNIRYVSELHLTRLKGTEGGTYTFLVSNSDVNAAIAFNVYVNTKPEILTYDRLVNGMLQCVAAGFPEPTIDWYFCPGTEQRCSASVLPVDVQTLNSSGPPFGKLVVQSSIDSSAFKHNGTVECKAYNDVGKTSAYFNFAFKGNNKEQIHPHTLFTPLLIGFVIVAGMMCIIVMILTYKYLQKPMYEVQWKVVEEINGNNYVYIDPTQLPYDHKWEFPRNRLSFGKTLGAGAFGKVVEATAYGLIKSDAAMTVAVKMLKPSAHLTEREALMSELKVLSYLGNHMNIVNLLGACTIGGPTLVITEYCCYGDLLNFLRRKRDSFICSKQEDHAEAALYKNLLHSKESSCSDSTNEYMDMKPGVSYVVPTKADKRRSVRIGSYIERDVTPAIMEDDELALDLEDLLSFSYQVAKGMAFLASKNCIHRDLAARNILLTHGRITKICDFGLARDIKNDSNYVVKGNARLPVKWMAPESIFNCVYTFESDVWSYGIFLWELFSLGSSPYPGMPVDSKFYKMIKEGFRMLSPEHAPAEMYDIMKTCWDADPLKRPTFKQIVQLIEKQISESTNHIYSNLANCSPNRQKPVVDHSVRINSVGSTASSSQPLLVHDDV
# Chain of PDGFRα (P16234 24-1089): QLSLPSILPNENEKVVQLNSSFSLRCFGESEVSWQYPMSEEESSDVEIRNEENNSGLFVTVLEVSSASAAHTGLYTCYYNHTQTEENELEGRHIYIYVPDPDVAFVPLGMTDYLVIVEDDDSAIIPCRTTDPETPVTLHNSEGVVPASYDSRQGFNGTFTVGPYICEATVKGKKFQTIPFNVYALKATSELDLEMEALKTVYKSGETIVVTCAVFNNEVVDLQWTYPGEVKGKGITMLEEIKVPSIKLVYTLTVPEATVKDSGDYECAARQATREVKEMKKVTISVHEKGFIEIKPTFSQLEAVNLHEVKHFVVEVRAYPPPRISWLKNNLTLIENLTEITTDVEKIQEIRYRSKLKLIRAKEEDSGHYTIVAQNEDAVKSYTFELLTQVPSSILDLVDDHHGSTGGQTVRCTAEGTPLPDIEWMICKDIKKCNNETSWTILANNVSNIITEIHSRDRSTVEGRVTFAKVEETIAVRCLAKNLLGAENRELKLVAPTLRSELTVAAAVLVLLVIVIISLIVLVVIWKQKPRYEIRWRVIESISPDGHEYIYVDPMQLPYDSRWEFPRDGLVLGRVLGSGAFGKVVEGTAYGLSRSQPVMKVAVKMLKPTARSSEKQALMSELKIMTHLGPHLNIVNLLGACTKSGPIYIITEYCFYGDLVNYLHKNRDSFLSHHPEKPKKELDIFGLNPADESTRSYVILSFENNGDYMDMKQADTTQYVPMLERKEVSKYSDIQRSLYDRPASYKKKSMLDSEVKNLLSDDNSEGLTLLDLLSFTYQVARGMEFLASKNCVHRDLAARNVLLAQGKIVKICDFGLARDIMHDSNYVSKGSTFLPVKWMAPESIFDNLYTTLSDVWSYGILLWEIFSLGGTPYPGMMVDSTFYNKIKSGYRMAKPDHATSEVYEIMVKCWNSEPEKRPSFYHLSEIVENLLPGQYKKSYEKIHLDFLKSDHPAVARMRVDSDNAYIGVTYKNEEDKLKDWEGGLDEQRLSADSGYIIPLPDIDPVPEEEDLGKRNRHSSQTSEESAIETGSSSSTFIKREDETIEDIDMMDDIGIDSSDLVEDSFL
# Chain of CSF1R (P07333 20-972): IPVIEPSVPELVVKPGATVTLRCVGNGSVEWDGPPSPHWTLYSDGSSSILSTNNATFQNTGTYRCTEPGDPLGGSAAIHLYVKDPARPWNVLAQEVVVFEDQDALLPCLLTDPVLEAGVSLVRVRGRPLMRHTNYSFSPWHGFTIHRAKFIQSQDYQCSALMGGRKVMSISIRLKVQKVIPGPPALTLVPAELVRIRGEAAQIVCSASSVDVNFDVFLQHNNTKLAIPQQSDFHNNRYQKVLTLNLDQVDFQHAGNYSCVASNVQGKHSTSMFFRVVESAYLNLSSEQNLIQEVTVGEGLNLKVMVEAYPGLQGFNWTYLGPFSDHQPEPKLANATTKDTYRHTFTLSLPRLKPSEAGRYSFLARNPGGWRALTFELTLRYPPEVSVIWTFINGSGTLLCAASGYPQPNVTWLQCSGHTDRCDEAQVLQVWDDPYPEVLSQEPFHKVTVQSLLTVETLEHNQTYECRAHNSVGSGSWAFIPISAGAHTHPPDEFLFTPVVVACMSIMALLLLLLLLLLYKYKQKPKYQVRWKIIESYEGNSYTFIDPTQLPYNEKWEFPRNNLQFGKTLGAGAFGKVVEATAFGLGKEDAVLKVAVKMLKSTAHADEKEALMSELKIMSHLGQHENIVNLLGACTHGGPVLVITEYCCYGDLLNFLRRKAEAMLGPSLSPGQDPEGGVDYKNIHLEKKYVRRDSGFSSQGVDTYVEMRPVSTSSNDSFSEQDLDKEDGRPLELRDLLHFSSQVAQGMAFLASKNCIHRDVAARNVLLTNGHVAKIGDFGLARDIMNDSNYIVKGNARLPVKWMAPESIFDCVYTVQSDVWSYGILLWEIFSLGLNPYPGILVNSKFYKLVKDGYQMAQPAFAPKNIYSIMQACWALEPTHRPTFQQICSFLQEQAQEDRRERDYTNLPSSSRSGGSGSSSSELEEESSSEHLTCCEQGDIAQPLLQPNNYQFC
IC50 [1],IC50 [2],IC50 [3],IC50 [4],IC50 [5],"IC50 [6, 10]","IC50 ([6]; Phospho-KIT (Y703), M07e cells, read-out: M07e Cell IC50)","Percent of total metabolism via bioactivation, Rat hepatocytes [7]","Percent of total metabolism via bioactivation, Human hepatocytes [8]","Percent of total metabolism via bioactivation, Dog hepatocytes [9]","IC50 [6, 11]",Structure (SMILES),IC50 ([6]; read-out: M07e Cell IC50)
< 0.1 µM,> 1 µM,> 1 µM,> 1 µM,> 1 µM,< 0.1 µM,–,–,–,–,–,"Nc1ncc(C(=O)Nc2cc(C(=O)Nc3ccc(OCC(F)(F)F)cn3)c(F)cc2F)s1 [Example 220, 2-Amino-N-[2,4-difluoro-5-[[5-(2,2,2-trifluoroethoxy)pyridin-2-yl]carbamoyl]phenyl]-1,3-thiazole-5-carboxamide]",–
< 0.1 µM,0.1 to 1 µM,> 1 µM,> 1 µM,0.1 to 1 µM,< 0.1 µM,–,–,–,–,–,"Cc1cc(F)c(C(=O)Nc2ccc(C(F)F)cn2)cc1NC(=O)c1cnc(N)s1 [Example 226, 2-Amino-N-[5-[[5-(difluoromethyl)pyridin-2-yl]carbamoyl]-4-fluoro-2-methylphenyl]-1,3-thiazole-5-carboxamide]",–
< 0.1 µM,0.1 to 1 µM,< 0.1 µM,> 1 µM,< 0.1 µM,< 0.1 µM,–,–,–,–,–,"Cc1cc(F)c(C(=O)Nc2ccc(OC3CC3)cc2)cc1NC(=O)c1cnc(N)s1 [Example 229, 2-Amino-N-[5-[(4-cyclopropyloxyphenyl)carbamoyl]-4-fluoro-2-methylphenyl]-1,3-thiazole-5-carboxamide]",–
< 0.1 µM,0.1 to 1 µM,0.1 to 1 µM,> 1 µM,0.1 to 1 µM,< 0.1 µM,–,–,–,–,–,"COc1ccc(NC(=O)c2cc(NC(=O)c3cnc(N)s3)c(C)cc2F)cc1 [Example 230, 2-Amino-N-[4-fluoro-5-[(4-methoxyphenyl)carbamoyl]-2-methylphenyl]-1,3-thiazole-5-carboxamide]",–
< 0.1 µM,0.1 to 1 µM,0.1 to 1 µM,> 1 µM,0.1 to 1 µM,< 0.1 µM,–,–,–,–,–,"Cc1cc(F)c(C(=O)Nc2ccc(Cl)cc2)cc1NC(=O)c1cnc(N)s1 [Example 231, 2-Amino-N-[5-[(4-chlorophenyl)carbamoyl]-4-fluoro-2-methylphenyl]-1,3-thiazole-5-carboxamide]",–
< 0.1 µM,0.1 to 1 µM,0.1 to 1 µM,> 1 µM,< 0.1 µM,–,< 0.1 µM,–,–,–,–,"Cc1cc(F)c(C(=O)Nc2ccc(OC3CC3)cn2)cc1NC(=O)c1cnc(NC(=O)C2CC2)s1 [Example 238, 2-(Cyclopropanecarbonylamino)-NV-[5-[(5-cyclopropyloxypyridin-2-yl)carbamoyl]-4-fluoro-2-methylphenyl]-1,3-thiazole-5-carboxamide]",–
< 0.1 µM,> 1 µM,> 1 µM,> 1 µM,> 1 µM,< 0.1 µM,–,–,–,–,–,"CNc1ncc(C(=O)Nc2cc(C(=O)Nc3ccc(OC4CC4)cn3)c(F)cc2C)s1 [Example 241, N-[5-[(5-cyclopropyloxypyridin-2-yl)carbamoyl]-4-fluoro-2-methylphenyl]-2-(methylamino)-1,3-thiazole-5-carboxamide]",–
0.1 to 1 µM,> 1 µM,> 1 µM,–,> 1 µM,–,–,88%,<1%,44%,–,"Cc1ncc(C(=O)Nc2cc(C(=O)Nc3ccc(CC(F)(F)F)cn3)c(F)cc2F)s1 [Example 242, N-[2,4-difluoro-5-[[5-(2,2,2-trifluoroethyl)pyridin-2-yl]carbamoyl]phenyl]-2-methyl-1,3-thiazole-5-carboxamide]",–
< 0.1 µM,> 1 µM,> 1 µM,> 1 µM,> 1 µM,< 0.1 µM,–,–,–,–,–,"COCCc1ccc(NC(=O)c2cc(NC(=O)c3cnc(N)s3)c(C)cc2F)nc1 [Example 245, 2-Amino-N-[4-fluoro-5-[[5-(2-methoxyethyl)pyridin-2-yl]carbamoyl]-2-methylphenyl]-1,3-thiazole-5-carboxamide]",–
< 0.1 µM,> 1 µM,> 1 µM,> 1 µM,> 1 µM,< 0.1 µM,–,–,–,–,–,"Cc1cc(F)c(C(=O)Nc2ccc(COCC3CC3)cn2)cc1NC(=O)c1cnc(N)s1 [Example 251, 2-Amino-N-[5-[[5-(cyclopropylmethoxymethyl)pyridin-2-yl]carbamoyl]-4-fluoro-2-methylphenyl]-1,3-thiazole-5-carboxamide]",–
< 0.1 µM,0.1 to 1 µM,0.1 to 1 µM,> 1 µM,0.1 to 1 µM,< 0.1 µM,–,–,–,–,–,"CCc1ccc(NC(=O)c2cc(NC(=O)c3cnc(N)s3)c(C)cc2F)nc1 [Example 255, 2-Amino-N-[5-[(5-ethylpyridin-2-yl)carbamoyl]-4-fluoro-2-methylphenyl]-1,3-thiazole-5-carboxamide]",–
< 0.1 µM,> 1 µM,> 1 µM,> 1 µM,0.1 to 1 µM,< 0.1 µM,–,–,–,–,–,"CO[C@H](C)c1ccc(NC(=O)c2cc(NC(=O)c3cnc(N)s3)c(C)cc2F)nc1 [Example 256, 2-Amino-N-[4-fluoro-5-[[5-[(1R)-1-methoxyethyl]pyridin-2-yl]carbamoyl]-2-methylphenyl]-1,3-thiazole-5-carboxamide]",–
< 0.1 µM,> 1 µM,> 1 µM,> 1 µM,0.1 to 1 µM,< 0.1 µM,–,–,–,–,–,"CO[C@@H](C)c1ccc(NC(=O)c2cc(NC(=O)c3cnc(N)s3)c(C)cc2F)nc1 [Example 257, 2-Amino-N-[4-fluoro-5-[[5-[(1S)-1-methoxyethyl]pyridin-2-yl]carbamoyl]-2-methylphenyl]-1,3-thiazole-5-carboxamide]",–
< 0.1 µM,0.1 to 1 µM,0.1 to 1 µM,> 1 µM,0.1 to 1 µM,< 0.1 µM,–,–,–,–,–,"Cc1cc(F)c(C(=O)Nc2ccc(OC3CC3)nn2)cc1NC(=O)c1cnc(N)s1 [Example 258, 2-Amino-N-[5-[(6-cyclopropyloxypyridazin-3-yl)carbamoyl]-4-fluoro-2-methylphenyl]-1,3-thiazole-5-carboxamide]",–
< 0.1 µM,0.1 to 1 µM,0.1 to 1 µM,> 1 µM,< 0.1 µM,–,–,–,–,–,< 0.1 µM,"Cc1cc(F)c(C(=O)Nc2ccc(OC(C)C)nn2)cc1NC(=O)c1cnc(N)s1 [Example 259, 2-Amino-N-[4-fluoro-2-methyl-5-[(6-propan-2-yloxypyridazin-3-yl)carbamoyl]phenyl]-1,3-thiazole-5-carboxamide]",–
< 0.1 µM,0.1 to 1 µM,> 1 µM,> 1 µM,0.1 to 1 µM,–,–,–,–,–,< 0.1 µM,"COC1(c2ccc(NC(=O)c3cc(NC(=O)c4cnc(N)s4)c(C)cc3F)nc2)CC1 [Example 260, 2-Amino-N-[4-fluoro-5-[[5-(1-methoxycyclopropyl)pyridin-2-yl]carbamoyl]-2-methylphenyl]-1,3-thiazole-5-carboxamide]",–

Structure (SMILES),IC50 [1],IC50 [2],IC50 [3],IC50 [4],IC50 [5],"IC50 [6, 10]","IC50 ([6]; Phospho-KIT (Y703), M07e cells, read-out: M07e Cell IC50)","Percent of total metabolism via bioactivation, Rat hepatocytes [7]","Percent of total metabolism via bioactivation, Human hepatocytes [8]","Percent of total metabolism via bioactivation, Dog hepatocytes [9]","IC50 [6, 11]",IC50 ([6]; read-out: M07e Cell IC50)
COCC1(c2ccc(NC(=O)c3cc(NC(=O)c4cnc(N)s4)c(C)cc3F)nc2)CC1 [Example 244],< 0.1 µM,0.1 to 1 µM,> 1 µM,> 1 µM,0.1 to 1 µM,–,–,–,–,–,–,< 0.1 µM
